The test system of one data set is intraocular pressure. The conditions noted are these: ocular; compared with PGF2α; cited from earlier work.
Another data set has as its system ocular surface. The conditions noted are these: topical ocular use in humans; cited from earlier work.
A further data set deals with Dog intraocular pressure. Nature of the data set: Intraocular pressure in dogs by applanation pneumatonometry. The data set is classed as in vivo. The conditions noted are these: 25 μl to the ocular surface, IOP before and at 6 hours after administration, FIG. 9. The method, then: The compounds were prepared at the said concentrations in a vehicle comprising 0.1% polysorbate 80 and 10 mM TRIS base. Dogs were treated by administering 25 μl to the ocular surface, the contralateral eye received vehicle as a control. Intraocular pressure was measured by applanation pneumatonometry. Dog intraocular pressure was measured immediately before drug administration and at 6 hours thereafter.

`CCCCC[C@H](O)/C=C/[C@@H]1[C@@H](C/C=C\CCCC(=O)OC(C)C)[C@@H](O)C[C@H]1O` [isopropyl ester of PGF2α]: the “hypotensive potency versus parent compound” value in the data set with intraocular pressure is given as “significantly greater hypotensive potency than the parent compound”. Besides, the ocular side effects result in the data set with ocular surface is “ocular surface (conjunctival) hyperemia and foreign-body sensation”. With `CCCCC[C@H](O)/C=C/[C@@H]1[C@@H](C/C=C\CCCC(=O)O)[C@@H](O)C[C@H]1O` [PGF2α, (Z)-7-[(1R,2R,3R,5S)-3,5-Dihydroxy-2-((S)-(E)-3-hydroxyoct-1-enyl)-cyclopentyl]hept-5-enoic Acid], the ocular side effects result with ocular surface was “ocular surface (conjunctival) hyperemia and foreign-body sensation”. `CC(=O)OCC(=O)CCC/C=C\C[C@@H]1[C@@H](/C=C/[C@@H](O)CCc2ccc(Cl)s2)[C@H](OC(C)=O)C[C@@H]1O` [Example 102, Acetic Acid (Z)-8-{(1R,2R,3R,5S)-3-acetoxy-2-[(S)-(E)-5-(5-chloro-thiophen-2-yl)-3-hydroxy-pent-1-enyl]-5-hydroxy-cyclopentyl}-2-oxo-oct-6-enyl Ester]: in the data set with Dog intraocular pressure, the ocular hypotensive effect result is reported as “pronounced ocular hypotensive effect”. For the compound `CC(=O)OCC(=O)CCC/C=C\C[C@@H]1[C@@H](/C=C/[C@@H](O)CCc2ccc(Cl)s2)[C@H](O)C[C@@H]1O` [Example 101, Acetic Acid (Z)-8-{(1R,2R,3R,5S)-2-[(S)-(E)-5-(5-chloro-thiophen-2-yl)-3-hydroxy-pent-1-enyl]-3,5-dihydroxy-cyclopentyl}-2-oxo-oct-6-enyl Ester], the ocular hypotensive effect entry with Dog intraocular pressure is listed as “pronounced ocular hypotensive effect”.

The values above are taken from patent US6359181B1, “Cyclopentane 1-hydroxy alkyl or alkenyl-2-one or 2-hydroxy derivatives as therapeutic agents” (Allergan Sales, Inc., priority 2000, dated 2002).
